Test results taken from patent US4000985A, “Azo dyes having a high solubility in petroleum fuels” (Morton-Norwich Products, Inc., priority 1975, dated 1977).

Legend:
[1] = Physical state of the isolated dye; type: physicochemical; details: after isolation according to Procedure B
Source text: alternatively, the crude liquid dye may be taken up with a volatile solvent and the solvent removed during the drying process to yield a non-volatile liquid colorant.

[2] = Rate and extent of dissolution in No. 1 and No. 2 Heating Oils at 25° C. (colorimetric); type: physicochemical; details: for Percent Dissolved: 25° C.
Description: The solubility properties of each of the dyes of Examples 16-41 were evaluated in the fuels No. 1 and No. 2 Heating Oils, respectively. The procedure was as follows:
Where the dyes are solid dyes, excess of pulverized solid dye, far beyond that which would dissolve, i.e., 30 to 35% dye, was added to the respective oils at 25° C. and agitated at constant speed. Samples were removed at 1, 10 and 20 minute intervals, filtered, and the amount of dissolved dye determined colorimetrically.
The tarry non-solid dyes were charged in proportions of 50-60% dye to 50-40% oil rather than 30-35% used for the solid dyes. In fact, it was very difficult to stir the tarry dye-fuel oil mixture at a dye concentration of 50%. Samples for these dyes were taken after 2 minutes. The longer initial time for the tarry dyes was to permit reasonable contact between solvent and the viscous, condensed dye.

[3] = No. 1 Fuel Oil, 1 Minute, aminoazotoluene dyes (Table 6)
[4] = No. 1 Fuel Oil, 10 Minutes, aminoazotoluene dyes (Table 6)
[5] = No. 1 Fuel Oil, 20 Minutes, aminoazotoluene dyes (Table 6)
[6] = No. 2 Fuel Oil, 1 Minute, aminoazotoluene dyes (Table 7)
[7] = No. 2 Fuel Oil, 10 Minutes, aminoazotoluene dyes (Table 7)
[8] = No. 2 Fuel Oil, 20 Minutes, aminoazotoluene dyes (Table 7)
[9] = No. 1 Fuel Oil, 1 Minute, aminoazobenzene dyes (Table 4)
[10] = No. 1 Fuel Oil, 10 Minutes, aminoazobenzene dyes (Table 4)
[11] = No. 1 Fuel Oil, 20 Minutes, aminoazobenzene dyes (Table 4)
[12] = No. 2 Fuel Oil, 1 Minute, aminoazobenzene dyes (Table 5)
[13] = No. 2 Fuel Oil, 10 Minutes, aminoazobenzene dyes (Table 5)
[14] = No. 2 Fuel Oil, 20 Minutes, aminoazobenzene dyes (Table 5)

Row | SMILES | Physical State of Dye [1] | Percent Dissolved [2, 3] | Percent Dissolved [2, 4] | Percent Dissolved [2, 5] | Percent Dissolved [2, 6] | Percent Dissolved [2, 7] | Percent Dissolved [2, 8] | Percent Dissolved [2, 9] | Percent Dissolved [2, 10] | Percent Dissolved [2, 11] | Percent Dissolved [2, 12] | Percent Dissolved [2, 13] | Percent Dissolved [2, 14] | solubility in fuel oils (in words) ([2]; No. 1 and No. 2 fuel oils)
1 | CCCCCCNc1ccc2ccccc2c1N=Nc1ccc(N=Nc2ccccc2C)cc1C [Example 33] | Solid | 1.31% | 1.28% | 1.27% | 0.93% | 1.01% | 1.11% |  |  |  |  |  |  | 
2 | CCCCNc1ccc2ccccc2c1N=Nc1ccc(N=Nc2ccccc2)cc1 [Example 17] | Solid |  |  |  |  |  |  | 1.99% | 1.79% | 1.57% | 1.83% | 2.03% | 2.12% | 
3 | Cc1ccccc1N=Nc1ccc(N=Nc2c(NCCOCCO)ccc3ccccc23)c(C)c1 [Example 32] | Solid | 0.09% | 0.12% | 0.13% | 0.20% | 0.15% | 0.15% |  |  |  |  |  |  | 
4 | CCCCCCCCCCCCNc1ccc2ccccc2c1N=Nc1ccc(N=Nc2ccccc2)cc1 [Example 28] | Solid |  |  |  |  |  |  | 2.85% | 4.60% | 5.38% | 7.46% | 8.17% | 9.06% | 
5 | CCCCCCCNc1ccc2ccccc2c1N=Nc1ccc(N=Nc2ccccc2C)cc1C [Example 36] | Solid | 1.42% | 1.56% | 1.65% | 1.77% | 2.27% | 2.59% |  |  |  |  |  |  | 
6 | CCNc1ccc2ccccc2c1N=Nc1ccc(N=Nc2ccccc2)cc1 [Example 16] | Solid |  |  |  |  |  |  | 1.05% | 1.36% | 1.48% | 1.49% | 1.64% | 1.78% | 
7 | CCCCCCCCCCNc1ccc2ccccc2c1N=Nc1ccc(N=Nc2ccccc2C)cc1C [Example 39] | Solid | 1.09% | 1.13% | 1.14% | 1.30% | 1.37% | 1.48% |  |  |  |  |  |  | 
8 | CCOCCOCCCNc1ccc2ccccc2c1N=Nc1ccc(N=Nc2ccccc2C)cc1C [Example 35] | Solid | 5.33% | 6.23% | 7.40% | 3.70% |  | 3.97% |  |  |  |  |  |  | 
9 | CCOCCOCCCNc1ccc2ccccc2c1N=Nc1ccc(N=Nc2ccccc2)cc1 [Example 22] |  |  |  |  |  |  |  | 3.68% |  | 3.68% | 0.57% | 0.58% | 0.61% | low solubility in both fuels much like that of a solid dye
10 | Cc1ccccc1N=Nc1ccc(N=Nc2c(NC3CCCCC3)ccc3ccccc23)c(C)c1 [Example 34] | Solid | 0.82% | 0.87% | 0.94% | 0.99% | 1.05% | 1.09% |  |  |  |  |  |  | 
11 | CCCCCCCCCCCCNc1ccc2ccccc2c1N=Nc1ccc(N=Nc2ccccc2C)cc1C [Example 41] | Solid | 3.29% | 4.04% | 4.50% | 4.48% | 4.68% | 5.21% |  |  |  |  |  |  | 
12 | COCCCNc1ccc2ccccc2c1N=Nc1ccc(N=Nc2ccccc2)cc1 [Example 18] | Solid |  |  |  |  |  |  | 2.02% | 3.15% | 3.57% | 0.66% | 0.68% | 0.73% | 
13 | CCCCCCNc1ccc2ccccc2c1N=Nc1ccc(N=Nc2ccccc2)cc1 [Example 20] | Solid |  |  |  |  |  |  | 4.65% | 4.47% | 4.35% | 5.12% | 5.12% | 5.27% | 
14 | CCCCNc1ccc2ccccc2c1N=Nc1ccc(N=Nc2ccccc2C)cc1C [Example 30] | Solid | 0.19% | 0.26% | 0.26% | 0.27% | 0.29% | 0.35% |  |  |  |  |  |  | 
15 | CCNc1ccc2ccccc2c1N=Nc1ccc(N=Nc2ccccc2C)cc1C [Example 29] | Solid | 0.24% | 0.32% | 0.37% | 0.29% | 0.37% | 0.39% |  |  |  |  |  |  | 
16 | CCCCCCCNc1ccc2ccccc2c1N=Nc1ccc(N=Nc2ccccc2)cc1 [Example 23] | Solid |  |  |  |  |  |  | 4.92% | 7.83% | 7.56% | 7.11% | 8.10% | 8.90% | 
17 | OCCOCCNc1ccc2ccccc2c1N=Nc1ccc(N=Nc2ccccc2)cc1 [Example 19] | Solid |  |  |  |  |  |  | 0.06% | 0.06% | 0.06% | 0.14% | 0.17% | 0.21% | 
18 | CCCCCCCCNc1ccc2ccccc2c1N=Nc1ccc(N=Nc2ccccc2C)cc1C [Example 37] | Solid | 1.38% | 1.39% | 1.78% | 2.26% | 2.89% | 2.69% |  |  |  |  |  |  | 
19 | c1ccc(N=Nc2ccc(N=Nc3c(NC4CCCCC4)ccc4ccccc34)cc2)cc1 [Example 21] | Solid |  |  |  |  |  |  | 4.01% | 2.25% | 2.30% | 3.10% | 3.10% | 3.21% | 
20 | COCCCNc1ccc2ccccc2c1N=Nc1ccc(N=Nc2ccccc2C)cc1C [Example 31] | Solid | 0.58% | 0.57% | 0.58% | 2.96% | 4.21% | 4.96% |  |  |  |  |  |  | 
21 | CCCCCCCCNc1ccc2ccccc2c1N=Nc1ccc(N=Nc2ccccc2)cc1 [Example 24] | Solid |  |  |  |  |  |  | 12.05% | 7.26% | 5.96% | 5.48% | 6.25% | 6.25% | 
